Source: PubChem BioAssay AID1963845 (Molecular Pharmacology Branch, DTP, NCI, 2024)

System: 429239-143-T-J1-PDC complex spheroid viability
Assay: Anticancer human tumor 429239-143-T-J1-PDC patient-derived small cell lung carcinoma cell line growth inhibition [POLQ]
Details: for IC50: curve of first compound; for viability, T/C: stronger effect = lower value
Protocol: Multicellular complex tumor spheroid response to Polymerase (POL) inhibitors (novobiocin, ART-558, RP6685) in combination with a variety of drugs and investigational agents in selected tumor cell lines
The POL inhibitors (novobiocin, ART-558, and RP6685) were evaluated both individually and in combination with standard of care and investigational anticancer small molecules within a complex spheroid model of solid tumors. . Complex spheroids include a stromal component modeled by human endothelial cells (HUVEC) and fibroblasts modeled by human mesenchymal stem cells (MSCs). The concentration ranges selected for each drug and investigational agent were based upon clinically achievable concentrations if the clinical Cmax of the agent was known.
Compounds. The drugs and investigational agents: novobiocin (NSC847541), ART-558 (NSC835418), RP-6685 (NSC848927), peposertib (NSC802822), ceralasertib (NSC780249), elimusertib (NSC800525), camonsertib (NSC841442), AZD-1390 (NSC803789), olaparib (NSC753686), talazoparib (NSC767125), rucaparib (NSC756644), sotorasib (NSC818433), MRTX-1133 (NSC836407), SN-38 (NSC673596), topotecan (NSC609699), epotoside (NSC141540), doxorubicin (NSC123127), gemcitabine (NSC613327), 5-fluorouracil (NSC19893), paclitaxel (NSC125973), vemurafenib (NSC761431), MSA-2 (NSC828583), SN-011 (NSC837082), adavosertib (NSC754352), prexasertib (NSC758257), carboplatin (NSC241240) and oxaliplatin (NSC266046), were obtained from the National Cancer Institute (NCI) Developmental Therapeutics Program Chemical Repository (21). The FDA-approved anticancer drug set is available from the Developmental Therapeutics Program at https://dtp.cancer.gov/organization/dscb/obtaining/. […] The stock solutions were prepared in dimethyl sulfoxide (DMSO, Sigma-Aldrich, St. Louis, MO, cat. D2650), except for the platinum compounds which were prepared in saline (Quality Biological, Gaithersburg, MD, cat. 114-055-101), at 800-fold the tested concentration and stored at -70 degrees C prior to their use. All drugs and investigational agents were tested over a range starting from a high concentration at or near the clinical Cmax and decreasing in half-log increments. If the clinical Cmax for an agent had not been determined, the highest concentration tested was 10 microM, except for SN-38, which was tested at a high concentration of 1 microM.
Cell Culture. All cells were maintained in an incubator at 37 degrees C and 5% CO2 with 95% humidity. The PDC lines were cultured according to standard operating procedures established by the NCI PDMR (https://pdmr.cancer.gov). Table 3 of the manuscript, lists the cell lines along with the number of the three cell types plated to form the mct-spheroids and media for tumor cell growth. After thawing, all PDC lines, except 997537-175-T-J1-PDC and 415267-285-R-J2-PDC, were cultured in Matrigel-coated flasks prepared with a working solution of 1X Ham's F-12 nutrient mix, without supplementation (Thermo Fisher Scientific, cat. 11765054), 100 U/mL penicillin-streptomycin (Thermo Fisher Scientific, cat. 15140122), and 2.5% Matrigel (Corning Inc., Corning, NY, cat. 354248) for the first three passages. The two PDC lines 997537-175-T-J1-PDC and 415267-285-R-J2-PDC were cultured on uncoated flasks. The 857933-349-R-J2-PDC line was cultured in 6C/Colon 1B media containing advanced DMEM/F-12 (Thermo Fisher Scientific, cat. 12634028), 10 mM HEPES (Thermo Fisher Scientific, cat. 15630080), 1X GlutaMAX supplement (Thermo Fisher Scientific, cat. 35050061), 0.1 mg/mL primocin (InvivoGen, San Diego, CA, cat. ant-pm-2), 10% defined fetal bovine serum, heat inactivated (HyClone Laboratories Inc., Logan, UT, cat. SH30070.03HI), 50% L-WRN conditioned media (ATCC, cat. CRL-3276), 1.25 mM N-Acetyl-L-cysteine (Sigma-Aldrich, cat. A9165), 10 mM nicotinamide (Sigma-Aldrich, cat. N0636), 1X B-27 supplement (Thermo Fisher Scientific, cat. 17504044), 1X N-2 supplement (Thermo Fisher Scientific, cat. […]

[1] = second compound 0.0316 µM, first compound 0.0316 µM
[2] = second compound 0.0316 µM, first compound 0.1 µM
[3] = second compound 0.1 µM, first compound 0.0316 µM
[4] = second compound 0.1 µM, first compound 0.1 µM
[5] = second compound 0.316 µM, first compound 0.0316 µM
[6] = second compound 0.316 µM, first compound 0.1 µM
[7] = second compound 1 µM, first compound 0.0316 µM
[8] = second compound 1 µM, first compound 0.1 µM
[9] = second compound 3.16 µM, first compound 0.0316 µM
[10] = second compound 3.16 µM, first compound 0.1 µM
[11] = second compound 10 µM, first compound 0.0316 µM
[12] = second compound 10 µM, first compound 0.1 µM
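Further: luminescence signal used as surrogate measure of viable cells; spheroids exposed to compounds for seven days before readout.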
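Wherever viability, T/C is given: 100% = DMSO vehicle control viability as luminescence relative to vehicle.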

Which results are given for `Cn1ncnc1[C@H]1c2n[nH]c(=O)c3cc(F)cc(c23)N[C@@H]1c1ccc(F)cc1` + Cc1cccc(N(C)C(=O)C2C(O)CCN2c2nc(C)cc(C(F)(F)F)c2C#N)c1?
IC50 (second compound 0.0316 µM): 19.8 nM; IC50 (second compound 0.1 µM): 19 nM; IC50 (second compound 0.316 µM): 24.6 nM; IC50 (second compound 1 µM): 19.3 nM; IC50 (second compound 3.16 µM): 27 nM; IC50 (second compound 10 µM): 11.5 nM; viability, T/C (second compound 0.0316 µM, first compound 0.000316 µM): 107%; viability, T/C (second compound 0.0316 µM, first compound 0.001 µM): 107%; viability, T/C (second compound 0.0316 µM, first compound 0.00316 µM): 88.4%; viability, T/C (second compound 0.0316 µM, first compound 0.01 µM): 62.4%; viability, T/C [1]: 42.7%; viability, T/C [2]: 29.6%; viability, T/C (second compound 0.1 µM, first compound 0.000316 µM): 87.6%; viability, T/C (second compound 0.1 µM, first compound 0.001 µM): 98.4%; viability, T/C (second compound 0.1 µM, first compound 0.00316 µM): 78.1%; viability, T/C (second compound 0.1 µM, first compound 0.01 µM): 65.9%; viability, T/C [3]: 34.7%; viability, T/C [4]: 39.8%; viability, T/C (second compound 0.316 µM, first compound 0.000316 µM): 93.5%; viability, T/C (second compound 0.316 µM, first compound 0.001 µM): 86.2%; viability, T/C (second compound 0.316 µM, first compound 0.00316 µM): 73.3%; viability, T/C (second compound 0.316 µM, first compound 0.01 µM): 65.7%; viability, T/C [5]: 44.7%; viability, T/C [6]: 29.2%; viability, T/C (second compound 1 µM, first compound 0.000316 µM): 97.1%; viability, T/C (second compound 1 µM, first compound 0.001 µM): 98.7%; viability, T/C (second compound 1 µM, first compound 0.00316 µM): 74.6%; viability, T/C (second compound 1 µM, first compound 0.01 µM): 57.8%; viability, T/C [7]: 47.1%; viability, T/C [8]: 31.8%; viability, T/C (second compound 3.16 µM, first compound 0.000316 µM): 95.8%; viability, T/C (second compound 3.16 µM, first compound 0.001 µM): 83%; viability, T/C (second compound 3.16 µM, first compound 0.00316 µM): 84.4%; viability, T/C (second compound 3.16 µM, first compound 0.01 µM): 60.5%; viability, T/C [9]: 49.1%; viability, T/C [10]: 30.2%; viability, T/C (second compound 10 µM, first compound 0.000316 µM): 91.8%; viability, T/C (second compound 10 µM, first compound 0.001 µM): 86.1%; viability, T/C (second compound 10 µM, first compound 0.00316 µM): 98.5%; viability, T/C (second compound 10 µM, first compound 0.01 µM): 51.8%; viability, T/C [11]: 41.2%; viability, T/C [12]: 32%

Which results are given for `Nc1ccn(C2OC(CO)C(O)C2(F)F)c(=O)n1` (centres undefined) + Nc1ccc(C#CCN(C(=O)Cc2ncc(C(F)(F)F)cc2C(F)(F)F)c2ccc(F)cc2)nn1?
IC50 (second compound 0.0316 µM): 49.4 nM; IC50 (second compound 0.1 µM): 49.9 nM; IC50 (second compound 0.316 µM): 48.3 nM; IC50 (second compound 1 µM): 46.2 nM; IC50 (second compound 3.16 µM): 47.6 nM; IC50 (second compound 10 µM): 50.6 nM; viability, T/C [1]: 77.1%; viability, T/C [2]: 7.33%; viability, T/C (second compound 0.0316 µM, first compound 0.316 µM): 5.99%; viability, T/C (second compound 0.0316 µM, first compound 1 µM): 6.45%; viability, T/C (second compound 0.0316 µM, first compound 3.16 µM): 6.94%; viability, T/C (second compound 0.0316 µM, first compound 10 µM): 6.48%; viability, T/C [3]: 77.7%; viability, T/C [4]: 7.8%; viability, T/C (second compound 0.1 µM, first compound 0.316 µM): 7.04%; viability, T/C (second compound 0.1 µM, first compound 1 µM): 5.04%; viability, T/C (second compound 0.1 µM, first compound 3.16 µM): 8.53%; viability, T/C (second compound 0.1 µM, first compound 10 µM): 6.25%; viability, T/C [5]: 75%; viability, T/C [6]: 7.13%; viability, T/C (second compound 0.316 µM, first compound 0.316 µM): 7.6%; viability, T/C (second compound 0.316 µM, first compound 1 µM): 6.15%; viability, T/C (second compound 0.316 µM, first compound 3.16 µM): 6.48%; viability, T/C (second compound 0.316 µM, first compound 10 µM): 7.03%; viability, T/C [7]: 70.9%; viability, T/C [8]: 7.27%; viability, T/C (second compound 1 µM, first compound 0.316 µM): 7.19%; viability, T/C (second compound 1 µM, first compound 1 µM): 7.47%; viability, T/C (second compound 1 µM, first compound 3.16 µM): 6.86%; viability, T/C (second compound 1 µM, first compound 10 µM): 6.1%; viability, T/C [9]: 73.6%; viability, T/C [10]: 7.11%; viability, T/C (second compound 3.16 µM, first compound 0.316 µM): 6.48%; viability, T/C (second compound 3.16 µM, first compound 1 µM): 5.97%; viability, T/C (second compound 3.16 µM, first compound 3.16 µM): 6.64%; viability, T/C (second compound 3.16 µM, first compound 10 µM): 8.77%; viability, T/C [11]: 78%; viability, T/C [12]: 9.42%; viability, T/C (second compound 10 µM, first compound 0.316 µM): 7.4%; viability, T/C (second compound 10 µM, first compound 1 µM): 7.48%; viability, T/C (second compound 10 µM, first compound 3.16 µM): 6.25%; viability, T/C (second compound 10 µM, first compound 10 µM): 7%
